# Measured values published in patent US8642801B2 (BHI Limited Partnership, priority 2003, dated 2014).
# What was measured:
# [1] = tested on: Aβ40 and Aβ42 peptides in plasma and brain of TgCRND8 mice; experiment: Long term treatment in adult transgenic CRND8 mice overexpressing βAPP: Aβ levels in plasma and brain by ELISA; type: in vivo, Mouse
# Source text: Transgenic mice, TgCRND8, as those used in the short term treatment, overexpress a human APP gene with the Swedish and Indiana mutations leading to the production of high levels of the amyloid peptides and to the development of an early-onset, aggressive development of brain amyloidosis. The high levels of Aβ peptides and the relative overabundance of Aβ42 compared to Aβ40 are believed to be associated with the severe and early degenerative pathology observed. The pattern of amyloid deposition, presence of dystrophic neuritis, and cognitive deficit has been well documented in this transgenic mouse line. The levels of Aβ peptides in the brain of these mice increase dramatically as the animals age. While the total amyloid peptide levels increase from ˜1.6×10^5 pg/g of brain to ˜3.8×10^6 between 9 and 17 weeks of age.
# The long-term therapeutic effects of compounds of the present invention on cerebral amyloid deposition and β-amyloid (Aβ) levels in the plasma and in the brains of transgenic mice, TgCRND8, expressing the human amyloid precursor protein (hAPP) was studied. These compounds were administered over an 8 or 16 week period at the end of which the levels of Aβ peptides in the plasma and brain of TgCRND8 animals were determined. The goal of this study was to evaluate the efficacy of the compounds at modulating the progression of the amyloidogenic process in the brain and in the plasma of a transgenic mouse model of Alzheimer's disease (AD)
# The mice used in the study consisted of animals bearing one copy of the hAPP gene (+/−) from the 2nd and 3rd generation progenies (N2 and N3) derived from backcrosses from TgCRND8.FVB(N2)AJ(N3) with B6AF1/J hybrid animals. N1=TgCRND8.FVB(N2)AJ(N3)×B6AF1/J N2=TgCRND8.FVB(N2)AJ(N3).B6AF1/J(N1)×B6AF1/J N3=TgCRND8.FVB(N2)AJ(N3).B6AF1/J(N2)×B6AF1/a
# (§1) The following abbreviations are used to designate these animals in the present study: TgCRND8.B6AF1/J(N2); TgCRND8.B6AF1/J(N3). Male and female transgenic mice were given daily subcutaneous (compound BX) or oral (compounds BW and BZ) administrations of the appropriate compounds for 8 or 16 weeks.
# Baseline animals consisted of 9±1 week old naive TgCRND8.B6AF1/J animals from the 2nd and 3rd generations. These mice were used to determine the extent of cerebral amyloid deposits and Aβ levels in the plasma and brain of naive transgenic animals at the initiation of treatment.
# (§2) Starting at 9 weeks of age (±1 week) animals received daily administration of their respective treatment for a period of 8 or 16 weeks, at a dose of 30 or 100 mg/kg at 10 ml/kg. The route of administration was subcutaneous for water-soluble compounds (Compound BX) and oral for compounds solubilized in methylcellulose 1% (MC 1%) (Compounds BW and BZ). At the end of the treatment periods, plasma and perfused brains were collected for quantification of Aβ levels.
# Animal health was monitored, samples were collected and Aβ levels were measured as described above in the short term treatment study. Compounds were scored based on their ability to modulate levels of Aβ peptides in the plasma and the cerebral soluble/insoluble levels in the brain. Levels of Aβ observed in the plasma and brain of treated animals were compared to that of vehicle-treated (water) or methylcellulose-treated control groups and ranked according to the strength of the pharmacological effect. Increases in the levels of Aβ peptides are indicated using “+” symbols, while decreases in the levels of Aβ peptides are indicated using “−” symbols. The strongest effects are recorded as “+++” or “−−−” while the weakest are shown as “+” or “−”.
# Specifically, increases in the levels of Aβ (relative to vehicle treated control) of 5 to 14% are scored as “+”; increases of 15 to 29% are scored as “++”; and increases of 30% or higher are scored as “+++”. Decreases in the levels of Aβ of 5 to 14% are scored as “−”; decreases of 15 to 29% are scored as “−−”; and decreases of 30% or more are scored as “−−−”. […]
# [2] = tested on: amyloid plaques in the brains of TgCRND8 mice; experiment: Histological ThioS (thioflavin S) study of brain plaques, long term treatment of TgCRND8 mice; type: in vivo, Mouse; settings: 30 mg/kg; preliminary histochemical experiments
# Experimental: as §1, §2
# For the ThioS studies, the plaques in the brains of the mice were quantified as follows. Mice were transcardially perfused with saline solution. […] Image analysis to quantify the number of plaques and the area occupied by these plaques was performed using Image Pro Plus software (Media Cybernetics, MD, USA). […]
# Specifically, increases in the areas and numbers of plaques (relative to vehicle treated control) of 10 to 19.99% are scored as “+”. Decreases in the areas and numbers of plaques of 10 to 19.99% are scored as “−”. Additionally, changes of 9.99% or less in either direction are scored as “0”.
SMILES,brain and plasma levels of Aβ ([1]; at 8 weeks),plasma levels of Aβ ([1]; at 16 weeks),area occupied by the plaques (ThioS staining of brain sections) [2],number of plaques (ThioS staining of brain sections) [2],amount of Aβ in the brain ([1]; at both 8 and 16 weeks)
"O=S(=O)(O)CCCNC12CC3CC(CC(C3)C1)C2 [BW, 3-(1-adamantyl)amino-1-propanesulfonic acid]",dramatic decrease,dramatic decrease,,,
"CC(C)(C)NCCCS(=O)(=O)O [BX, 3-(t-butyl)amino-1-propanesulfonic acid]",,,decreased,decreased,dramatic decrease
